Measured values as given in PubChem BioAssay (NCI).
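Dose response: 5 concentrations. Exposure: 48 h. Format: 96-well plates. Endpoint: linear interpolation; highest concentration if not reached. At the TGI there is no net growth.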

How the values were obtained:
Test in all cases: NCI-60 cell line screen, 48 h
SF-295 CNS = tested on: SF-295 CNS
DMS 273 small cell lung = tested on: DMS 273 small cell lung
SK-MEL-2 melanoma = tested on: SK-MEL-2 melanoma
LXFL 529 NSCLC = tested on: LXFL 529 NSCLC
KM12 colon = tested on: KM12 colon
DLD-1 colon = tested on: DLD-1 colon
A498 renal = tested on: A498 renal
OVCAR-3 ovarian = tested on: OVCAR-3 ovarian
MALME-3M melanoma = tested on: MALME-3M melanoma
RPMI-8226 leukemia = tested on: RPMI-8226 leukemia

| Structure (SMILES) | TGI (SF-295 CNS) | TGI (DMS 273 small cell lung) | TGI (SK-MEL-2 melanoma) | TGI (LXFL 529 NSCLC) | TGI (KM12 colon) | TGI (DLD-1 colon) | TGI (A498 renal) | TGI (OVCAR-3 ovarian) | TGI (MALME-3M melanoma) | TGI (RPMI-8226 leukemia) |
| --- | --- | --- | --- | --- | --- | --- | --- | --- | --- | --- |
| N#C/C(=C\c1cc(O)ccc1O)C(N)=O | > 100 µM | > 100 µM | > 100 µM | > 100 µM | > 100 µM | > 100 µM | > 100 µM | > 100 µM | > 100 µM | 65.6 µM |
| O=C(CO[N+](=O)[O-])OC/C=C/c1ccccc1 | > 100 µM | > 100 µM | > 100 µM | > 100 µM | > 100 µM | > 100 µM |  | > 100 µM | > 100 µM | > 100 µM |
| CN(C)C(=O)NC(=S)N(C)C | > 100 µM | > 100 µM | > 100 µM | > 100 µM | > 100 µM | > 100 µM | > 100 µM |  | > 100 µM | > 100 µM |
| CN(NC1OC(CO)C(O)C(O)C1O)c1ccccc1 (stereo not drawn) | > 100 µM | > 100 µM |  | > 100 µM | > 100 µM | > 100 µM |  | > 100 µM | > 100 µM | > 100 µM |
| COc1ccc(-c2ccccc2)c2[nH]c3c(c12)CCNC3=O | > 100 µM | > 100 µM |  | > 100 µM | > 100 µM | > 100 µM | > 100 µM | > 100 µM | > 100 µM | > 100 µM |
| Cc1cc(=O)n(-c2c(C)cccc2Cl)c(/C=C(\O)c2ccncc2)n1 | > 100 µM | > 100 µM | > 100 µM | > 100 µM | > 100 µM | > 100 µM | > 100 µM | > 100 µM | > 100 µM |  |
| COc1cc(/C=C/c2ccc(Br)cc2)cc(OC)c1OC | 40.2 µM | > 47.5 µM | 64.2 µM | > 100 µM | 38 µM | > 100 µM | > 56.6 µM | 26.4 µM | 76.2 µM | 20.8 µM |
| COc1ccc2c(c1)[n+](=O)c(C(=O)C/C(=N/NC(=O)C[N+](C)(C)C)C(=O)Nc1cccc(C)c1C)c(C)n2O | > 100 µM | > 100 µM | > 100 µM | > 100 µM | > 100 µM | > 100 µM | > 100 µM | > 100 µM | > 100 µM | > 100 µM |
| CC1=C(C(=O)NCc2ccccc2)C(c2ccccc2C)C(C(=O)NCc2ccccc2)=C(C)N1 | > 85.5 µM | > 69.9 µM | 38.5 µM | > 95.9 µM | 58.8 µM | 51.3 µM | > 100 µM | 45.5 µM | > 100 µM | > 100 µM |
| CC(=O)OCC1OC(OCc2ccccc2)C(Br)C(OC(C)=O)C1OC(C)=O (stereo not drawn) | > 100 µM | > 100 µM |  | > 100 µM | > 100 µM | > 100 µM | > 100 µM | > 100 µM | > 100 µM | > 100 µM |
| COc1cc2c(cc1O)CN1CCC23C=C[C@@H](O)CC13 (stereo partly drawn) | > 100 µM | > 100 µM | > 100 µM | > 100 µM | > 100 µM | > 100 µM | > 100 µM | > 100 µM | > 100 µM | > 100 µM |
